Values of other authors as cited in patent US9192159B2, “Azoxystrobin formulations” (priority 2006, dated 2015).

## CO/C=C(/C(=O)OC)c1ccccc1Oc1cc(Oc2ccccc2C#N)ncn1 [Azoxystrobin]
  Solubility in water: low solubility in water
